In patent US20250230462A1, “PPO2 POLYPEPTIDE HAVING TOLERANCE TO PPO INHIBITOR HERBICIDE AND APPLICATION” (priority 2022, published 2025):

Tests used:
[1] = tested on: rice seedlings edited at the OsPPO2 L422M/F442M site and wild-type strain; assay: Tolerance of gene-edited homozygous OsPPO2 L422M/F442M rice seedlings (4-leaf stage)
[2] = tested on: Arabidopsis thaliana overexpressing rice OsPPO2 WT or L422M/F442M; assay: Resistance test of Arabidopsis thaliana seeds overexpressing rice OsPPO2 on MS media containing PPO inhibitor herbicides; assay type: in vivo; settings: for tolerance of L422M/F442M overexpression relative to overexpression of the wild type PPO2: FIGS. 4-6, different concentrations; for resistance of plants at higher application concentrations: 2 μM, 1 μM and 1 μM (compound A, flumioxazin, saflufenacil respectively); for tolerance/resistance of plants compared with wild-type Arabidopsis thaliana: plants overexpressing OsPPO2 L422M/F442M and OsPPO2 WT, levels similar at 50 nM, 10 nM and 40 nM (compound A, flumioxazin, saflufenacil respectively)
Description: In order to rapidly verify the tolerance of rice OsPPO2 L422M/F442M mutants to different compounds, vectors for overexpressing wild-type and mutant rice PPO2 genes were constructed by conventional methods and overexpressed in Arabidopsis thaliana.
The obtained Arabidopsis thaliana seeds overexpressing rice OsPPO2 mutants and wild types were tested for resistance on MS media (petri dishes) that contained PPO inhibitor herbicidal compounds of various concentrations.

[3] = overexpressing OsPPO2 L422M/F442M

| Structure (SMILES) | crop safety when other PPO inhibiting herbicides were applied [1] | other results |
| --- | --- | --- |
| Cc1nn(-c2cc(CC(Cl)C(=O)O)c(Cl)cc2F)c(=O)n1C(F)F (stereo not shown) [carfentrazone] | excellent crop safety |  |
| C#CCN(C)c1c(C#N)cnn1-c1nn2c(c1Cl)CCCC2 [pyraclonil] | excellent crop safety |  |
| CS(=O)(=O)NC(=O)c1cc(Oc2ccc(C(F)(F)F)cc2Cl)ccc1[N+](=O)[O-] [fomesafen] | excellent crop safety |  |
| C#CCN1C(=O)COc2cc(F)c(N3C(=O)C4=C(CCCC4)C3=O)cc21 [flumioxazin] | excellent crop safety | tolerance of L422M/F442M overexpression relative to overexpression of the wild type PPO2 [2]: stronger tolerance; resistance of plants at higher application concentrations [2, 3]: still exhibited resistance; resistance of plants at higher application concentrations ([2]; overexpressing OsPPO2 WT): no difference from the wild-type Arabidopsis thaliana controls; tolerance/resistance of plants compared with wild-type Arabidopsis thaliana [2]: certain tolerance/resistance |
| COC(=O)CCNC(=O)C(C)Sc1cc(-n2c(=O)cc(C(F)(F)F)n(C)c2=O)c(F)cc1Cl (stereo not shown) [tiafenacil] | excellent crop safety |  |
| CC(C)N(C)S(=O)(=O)NC(=O)c1cc(-n2c(=O)cc(C(F)(F)F)n(C)c2=O)c(F)cc1Cl [saflufenacil] | excellent crop safety | tolerance of L422M/F442M overexpression relative to overexpression of the wild type PPO2 [2]: stronger tolerance; resistance of plants at higher application concentrations [2, 3]: still exhibited resistance; resistance of plants at higher application concentrations ([2]; overexpressing OsPPO2 WT): no difference from the wild-type Arabidopsis thaliana controls; tolerance/resistance of plants compared with wild-type Arabidopsis thaliana [2]: certain tolerance/resistance |
| CCOC(=O)C1(C)CC(c2cc(-n3c(=O)cc(C(F)(F)F)n(C)c3=O)c(F)cc2Cl)=NO1 (stereo not shown) | excellent crop safety |  |
| CCOC(=O)COc1ncccc1Oc1cc(-n2c(=O)cc(C(F)(F)F)n(C)c2=O)c(F)cc1Cl [Epyrifenacil, [3-[2-chloro-4-fluoro-5-(1-methyl-6-trifluoromethyl-2,4-dioxo-1,2,3,4-tetrahydropyrimidin-3-yl)phenoxy]-2-pyridyloxy] ethyl acetate] | excellent crop safety |  |
| CCOc1cc(Oc2ccc(C(F)(F)F)cc2Cl)ccc1[N+](=O)[O-] [oxyfluorfen] | excellent crop safety |  |
| Cc1nn(-c2cc(NS(C)(=O)=O)c(Cl)cc2Cl)c(=O)n1C(F)F [sulfentrazone] | excellent crop safety |  |
| C#CCN1C(=O)C(F)(F)Oc2cc(F)c(-n3c(=O)n(C)c(=S)n(C)c3=O)cc21 [trifludimoxazin] | excellent crop safety |  |
